In publication PMC8004929, “Whole-Body Pharmacokinetics and Physiologically Based Pharmacokinetic Model for Monomethyl Auristatin E (MMAE)” (Journal of Clinical Medicine, 2021):
Where two headings read alike, the source gives them in different places. Square brackets hold non-standard residues; d marks the D form. Peptide text beside a SMILES is read from it. * marks the point of attachment. Dolaproine = CO[C@@H]([C@@H]1CCCN1)[C@@H](C)C(=O)O; Dil = CC[C@H](C)[C@H](NC)[C@@H](CC(=O)O)OC; X1 = C[C@@H](N*)[C@@H](O)c1ccccc1; NMeV = CN[C@H](C(=O)O)C(C)C

What was measured:
[1] = Derivation of in vivo CLint (in vitro-in vivo extrapolation; NCA with well-stirred model); conditions: mice, 0.1 mg/kg i.v.
[2] = cited from earlier work
Procedure: The PBPK model well captured the PK in plasma, tissues, and tumor simultaneously. CLint was estimated with good precision (%CV = 8.92), and the optimized value was 137 mL/h. […] About 80% of MMAE excretes via feces, and only 6% excretes via urine. Therefore, we assumed that MMAE was eliminated only via metabolism and biliary/fecal excretion from the liver. […] For the derivation of CLint based on in vitro data, the CLint, vitro were estimated using human hepatocyte (3 µL/min/10^6 cells) and human ...

CYP3A = conditions: in vivo and in vitro studies; cited from earlier work
Text: The PBPK model of MMAE presented here can further be used to assess drug–drug interactions of MMAE containing ADCs. In vivo and in vitro studies indicate that MMAE is a substrate of CYP3A and P-glycoprotein [34]. As such, the polymorphism of CYP3A and P-glycoprotein may affect the PK of MMAE, and consequently the efficacy and toxicity of MMAE-conjugated ADCs. As such, the MMAE PBPK model can serve as a tool to explore drug interactions of ADCs.

[3] = cited from earlier work; remark: listed apart in the source
Procedure: There are some limitations of our study. First, only one dose level of MMAE was used to build the PBPK model. However, the current 0.1 mg/kg MMAE dose can be high enough to saturate the target, and thus, linear PK can be assumed. […] As more data at lower dose levels become available, the PBPK model can be further refined to elaborate the MMAE–tubulin interaction. Second, the PK profile of free M ...

In the case of CC[C@H](C)[C@@H]([C@@H](CC(=O)N1CCC[C@H]1[C@H](OC)[C@@H](C)C(=O)N[C@H](C)[C@@H](O)c1ccccc1)OC)N(C)C(=O)[C@@H](NC(=O)[C@@H](NC)C(C)C)C(C)C [MMAE, Monomethyl auristatin E] (H-[NMeV]V[Dil][Dolaproine]-X1), the “CLint derived from NCA analysis of in vivo PK data” value [1] is given as 150 mL/h, the “in vitro CLint (CLint, vitro)” value ([2]; human liver hepatocyte) is given as 3 µL/min/10^6 cells and the “in vitro CLint (CLint, vitro)” value ([2]; human liver microsome) is given as 24 µL/min/mg. The “substrate of CYP3A” value (CYP3A) was “substrate”, the “dose that induced mortality” value ([3]; rats, single dose) was greater than 0.116 mg/kg and the “single-dose no-observed-adverse-effect level (NOAEL)” value ([3]; rats) was 0.01 mg/kg. The “contribution of free MMAE to tissue total MMAE exposure following ADC administration” value ([3]; ref in-house data) was less than 20%.
